Data as given in paper PMC3480435, “Identification, Expression and Activity Analyses of Five Novel Duck Beta-Defensins” (PLoS ONE, 2012).

What was measured:
[1] = system: 12 bacteria (four Gram-positive and eight Gram-negative strains); conditions: colony counting, 10-100 µg/mL in PBS, 3 h preincubation then 12-18 h; % of CFU of unexposed bacteria; mean of three independent experiments, three replicates each; Fig. 3
Procedure: The antimicrobial activities of both rAvBD and sAvBD were determined by colony counting assay. Briefly, a 10 µL of diluted bacterial culture (diluted 1000-fold in the appropriate medium) was treated with 250 µL of rAvBD or sAvBD (0 to 100 µg/mL in PBS) in polypropylene microtiter plates and preincubated for 3 h at conditions suited to the investigated strain; 100 µL of minimal medium was added after 3 h and the plates were incubated for 12–18 h further. Then, the sample was rediluted 100-to-10^6-fold in minimal medium, transferred to TSA plates and colonies were counted after 24 h of incubation. Bactericidal activity was calculated as a percentage of CFU of bacteria not exposed to antimicrobial peptides but subjected to the same experimental conditions. Results from the antimicrobial assay represent the mean of the three independent experiments, with three replicates per experiment.

[2] = system: DHV-1 strain Du/CH/LBJ/090809; conditions: DHV-1 serially diluted, treated with equal volume of 300 µg/mL protein in PBS, 37°C 60 min; 11-day-old SPF duck embryos, observed 7 days; three independent experiments, five replicates
Procedure: Briefly, the DHV-1 (10^8 median embryo infectious doses, EID50) was serially diluted 10-fold and treated with equal volumes of GST or rAvBDs (300 µg/mL in PBS) at 37°C for 60 min. The mixture was inoculated into 11-day-old specific pathogen free (SPF) duck embryos, with 200 µL administered per duck. The inoculated duck embryos were incubated at 37°C and observed for 7 days. Mortality was recorded every 8 h. […] All antiviral activity assays were performed in three independent experiments, with five replicates per experiment.

Substance: glutathione-S-transferase [GST]
- bactericidal activity against all of the bacterial strains investigated [1]: no bactericidal activity
- survival time of duck embryos inoculated with treated DHV [2]: little effect
